Blank lines part the entries; values can stand above or below the compound they belong to. Active and inactive are the calls of the source.
Tests used:
CHO = CHO cell viability loss, potency – luminescence, cytotoxicity control for TLR9-MyD88 binding inhibitor project, dose response (AID 588339); type: functional, cell-based, hamster; details: Cricetulus griseus;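 note: CHO cells stably coexpressing TLR9 and MyD88 fusions from primary screen; compound exposure lasted 48 hours before viability readout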
Beta Lactamase = Beta Lactamase (Pseudomonas aeruginosa, UniProt Q932Y6); test: BLA reporter interference, concentration series – BLA reporter cells, FRET fluorescence, artefact control for TLR9-MyD88 binding inhibitor project, dose response (AID 588341); type: cell-based;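 note: cell based assay in CHO-K1 cells stably expressing beta-lactamase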
[1] = target: T1, Sentrin-specific protease 8 (Homo sapiens, UniProt Q96LD8); type: functional
T1 sequence (Q96LD8 whole entry): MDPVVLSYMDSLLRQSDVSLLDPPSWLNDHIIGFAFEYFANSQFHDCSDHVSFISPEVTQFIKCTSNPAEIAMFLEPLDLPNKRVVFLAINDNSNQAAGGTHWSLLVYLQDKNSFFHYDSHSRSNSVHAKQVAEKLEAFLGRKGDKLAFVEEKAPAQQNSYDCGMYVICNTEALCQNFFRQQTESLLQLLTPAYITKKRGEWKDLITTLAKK

[2] = target: T1, Sentrin-specific protease 8; type: functional; remark: listed apart in the source
CAAX prenyl protease 2 = target: T2, CAAX prenyl protease 2 (Saccharomyces cerevisiae S288c, UniProt Q03530); test: inhibition of Rce1p peptide cleavage – biochemical, plate reader, dry powder retest, dose response (AID 588851)
T2 sequence (Q03530 whole entry): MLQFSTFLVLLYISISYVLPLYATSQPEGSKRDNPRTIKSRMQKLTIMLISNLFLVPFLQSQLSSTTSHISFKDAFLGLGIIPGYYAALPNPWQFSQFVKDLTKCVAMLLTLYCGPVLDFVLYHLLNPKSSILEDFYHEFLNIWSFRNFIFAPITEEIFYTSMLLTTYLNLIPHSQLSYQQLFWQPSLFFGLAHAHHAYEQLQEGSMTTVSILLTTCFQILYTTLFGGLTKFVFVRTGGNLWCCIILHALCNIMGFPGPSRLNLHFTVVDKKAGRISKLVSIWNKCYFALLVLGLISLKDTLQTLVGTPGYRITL

Caspase-3 = target: T3, Caspase-3 (Homo sapiens, UniProt P42574); test: inhibition of recombinant caspase-3 activity – biochemical, luminescence, set 2, selectivity assay for SENP protease inhibitor project, SAR follow-up (AID 588599); type: functional
T3 sequence (P42574 whole entry): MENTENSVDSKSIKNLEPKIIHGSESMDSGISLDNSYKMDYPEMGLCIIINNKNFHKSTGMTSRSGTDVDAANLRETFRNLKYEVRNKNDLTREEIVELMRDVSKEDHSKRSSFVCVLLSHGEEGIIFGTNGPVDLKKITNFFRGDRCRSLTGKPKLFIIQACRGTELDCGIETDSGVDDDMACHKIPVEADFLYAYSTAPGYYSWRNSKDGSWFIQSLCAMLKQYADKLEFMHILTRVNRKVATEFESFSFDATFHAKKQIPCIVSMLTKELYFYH

[3] = target: T1, Sentrin-specific protease 8; test: inhibition of sentrin protease 8 – biochemical, luminescence, set 2, SAR follow-up (AID 588601); type: functional
[4] = target: T4, Sentrin-specific protease 7 (Homo sapiens, UniProt Q9BQF6); test: inhibition of human SENP7 cleavage activity – biochemical, luminescence, set 2, SAR follow-up (AID 588600); type: functional
T4 sequence (Q9BQF6 whole entry): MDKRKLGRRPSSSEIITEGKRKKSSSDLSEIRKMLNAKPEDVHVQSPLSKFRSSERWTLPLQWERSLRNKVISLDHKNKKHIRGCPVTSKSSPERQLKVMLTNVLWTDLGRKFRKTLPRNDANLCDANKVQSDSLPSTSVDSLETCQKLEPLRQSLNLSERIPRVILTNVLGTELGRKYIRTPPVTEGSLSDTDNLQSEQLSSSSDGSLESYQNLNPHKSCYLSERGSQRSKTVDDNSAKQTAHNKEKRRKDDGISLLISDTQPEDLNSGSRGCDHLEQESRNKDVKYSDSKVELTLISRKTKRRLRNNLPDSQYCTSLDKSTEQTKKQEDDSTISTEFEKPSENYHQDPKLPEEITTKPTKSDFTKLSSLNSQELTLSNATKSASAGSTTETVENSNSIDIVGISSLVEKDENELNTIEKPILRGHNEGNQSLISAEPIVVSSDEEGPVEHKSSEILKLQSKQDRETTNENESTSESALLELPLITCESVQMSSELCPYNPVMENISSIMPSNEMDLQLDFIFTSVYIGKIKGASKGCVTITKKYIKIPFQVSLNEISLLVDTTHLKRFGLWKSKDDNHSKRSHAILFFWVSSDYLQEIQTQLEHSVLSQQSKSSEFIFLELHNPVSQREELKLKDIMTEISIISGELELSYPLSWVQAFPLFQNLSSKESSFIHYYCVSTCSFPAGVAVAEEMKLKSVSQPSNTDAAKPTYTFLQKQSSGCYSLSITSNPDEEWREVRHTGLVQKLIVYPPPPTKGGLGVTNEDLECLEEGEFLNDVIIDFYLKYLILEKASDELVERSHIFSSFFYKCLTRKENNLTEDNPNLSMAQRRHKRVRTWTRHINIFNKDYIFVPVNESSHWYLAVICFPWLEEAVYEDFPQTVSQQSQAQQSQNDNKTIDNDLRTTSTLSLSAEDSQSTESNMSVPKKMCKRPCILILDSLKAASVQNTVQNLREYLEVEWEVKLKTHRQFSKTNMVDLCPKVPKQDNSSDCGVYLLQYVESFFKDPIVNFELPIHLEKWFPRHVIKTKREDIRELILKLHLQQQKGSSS

[5] = target: T5, Sentrin-specific protease 6 (Homo sapiens, UniProt Q9GZR1); test: inhibition of human SENP6 catalytic domain – biochemical, luminescence, set 2, SAR follow-up (AID 588598); type: functional
T5 sequence (Q9GZR1 whole entry): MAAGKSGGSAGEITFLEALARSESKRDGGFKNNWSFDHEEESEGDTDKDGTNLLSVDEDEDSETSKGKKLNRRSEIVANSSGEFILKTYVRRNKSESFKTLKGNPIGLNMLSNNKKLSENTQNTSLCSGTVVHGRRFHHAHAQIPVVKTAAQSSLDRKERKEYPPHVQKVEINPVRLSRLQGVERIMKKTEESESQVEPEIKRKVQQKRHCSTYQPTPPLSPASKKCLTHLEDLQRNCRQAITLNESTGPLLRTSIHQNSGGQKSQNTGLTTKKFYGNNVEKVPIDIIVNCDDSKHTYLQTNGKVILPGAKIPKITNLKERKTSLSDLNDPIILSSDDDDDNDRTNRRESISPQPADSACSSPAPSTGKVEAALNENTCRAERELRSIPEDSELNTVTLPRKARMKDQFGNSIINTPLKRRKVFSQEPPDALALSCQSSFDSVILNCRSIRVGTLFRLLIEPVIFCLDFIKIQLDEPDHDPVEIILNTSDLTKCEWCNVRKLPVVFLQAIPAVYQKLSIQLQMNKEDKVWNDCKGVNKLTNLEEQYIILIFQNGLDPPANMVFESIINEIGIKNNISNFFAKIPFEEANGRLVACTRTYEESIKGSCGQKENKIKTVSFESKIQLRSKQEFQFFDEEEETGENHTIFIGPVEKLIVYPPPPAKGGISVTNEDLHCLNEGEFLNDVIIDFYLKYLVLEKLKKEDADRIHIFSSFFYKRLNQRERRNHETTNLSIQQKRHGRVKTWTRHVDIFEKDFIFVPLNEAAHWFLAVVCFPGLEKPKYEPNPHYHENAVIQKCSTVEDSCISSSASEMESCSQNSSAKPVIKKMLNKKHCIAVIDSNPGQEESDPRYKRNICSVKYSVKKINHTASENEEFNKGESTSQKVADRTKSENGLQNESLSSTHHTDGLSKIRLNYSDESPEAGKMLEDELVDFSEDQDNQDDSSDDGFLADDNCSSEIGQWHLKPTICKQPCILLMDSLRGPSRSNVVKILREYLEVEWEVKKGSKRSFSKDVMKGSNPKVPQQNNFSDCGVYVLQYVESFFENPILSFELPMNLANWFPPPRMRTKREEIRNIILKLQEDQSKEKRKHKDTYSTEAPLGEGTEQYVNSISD

Sequence of Beta Lactamase (Q932Y6 whole entry): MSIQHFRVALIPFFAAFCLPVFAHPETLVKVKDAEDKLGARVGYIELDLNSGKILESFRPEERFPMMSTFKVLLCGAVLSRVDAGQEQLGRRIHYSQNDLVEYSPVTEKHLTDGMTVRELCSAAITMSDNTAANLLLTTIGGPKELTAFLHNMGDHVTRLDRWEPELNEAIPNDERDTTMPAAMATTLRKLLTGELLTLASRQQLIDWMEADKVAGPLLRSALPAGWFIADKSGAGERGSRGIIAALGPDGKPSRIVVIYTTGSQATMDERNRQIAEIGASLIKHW

SMILES: Cc1ccc(N2C(=O)Cc3ccccc3C2=O)cc1
IC50 (CHO): > 49.8 µM (inactive)
IC50 (Beta Lactamase): 4.59 µM (active)
IC50 [1]: > 100 µM (inactive)
IC50 [2]: 3.36 µM (active)

AC50 (CAAX prenyl protease 2): 54.9 µM (active)
SMILES: CCCOc1ccc(-c2c(C(=O)N/N=C/c3cccs3)nnn2-c2nonc2N)cc1

IC50 (Caspase-3): > 99 µM (inactive)
IC50 [4]: > 99 µM (inactive)
IC50 [5]: > 99 µM (inactive)
SMILES: CC(C)(C)C(=O)N1CCC(C(=O)Nc2nc3c(F)cc(F)cc3s2)CC1
IC50 [3]: > 99 µM (inactive)

Source: ChEMBL document CHEMBL1201862, “PubChem BioAssay data set” (2004)
